# From patent US7384920B2, “Use of stilbene compounds in the manufacture of medicament for the prevention and treatment of diabetes or retrovirus-associated diseases” (priority 2001, dated 2008)
# Several values for one entry are separate records, joined by “and”; a condition that tells them apart may be missing. Equal values may be shown once.
# Tests used:
# [1] = tested on: alloxan induced diabetic mice; assay: Hypoglycemic effect on glucose level of alloxan induced diabetic mice; format: in vivo; conditions: for Postdosing glucose level / Predosing glucose level: alloxan diabetic KM male mice; for Predosing glucose level: before dosing
# Protocol: The metformin or miglucan were used as positive control drugs. And the hypoglycemic effects were evaluated. Hypoglycemic effect of stilbene derivatives on glucose level of alloxan induced diabetic mice.
# KM strain male mice which have been fasted for 5-8 hours are used and be injected intravenously of alloxan 80mg/Kg, and 72 hours later, selected those with glucose level>11.0 mmol/L as the diabetic model mice for drug evaluation. Compounds were administered pos for 12 days.
# [2] = tested on: HBeAg expression; assay: Inhibition of HBeAg expression in 2.2.15 cells (ELISA of supernatant); format: cell-based; conditions: 2.2.15 cells 10^5/ml
# Protocol: Experimental method: use 10% DMEM(with G418 380 μg/ml)to cultivate 2.2.15 cells,
# Add 1.5ml of 10^5 cell/ml to 24 well plate for cultivation, change the new cultivate fluid next day and add different amount of compound to it, cultivate each concentration of compound to 3 wells, then collect and freeze 200 μl of supernatant of 2.2.15 cell culture at day 2,4,6 cultivation. Measure HBeAg value of the supernatant by ELISA.
# E3 are the same, OD optical density, IR inhibition rate, ctr control IR=[Ctr(P/N)−Agent(P/N)]/[Ctr(P/N)−2.1]
# [3] = tested on: mice; assay: in vivo; format: in vivo
# [4] = tested on: normal rats; assay: Effect on glucose tolerance curve of normal rats; format: in vivo; design: Auc (area under glucose tolerance curve): unit not given beside the values; conditions: for Glucose (fasted): fasted 8 hours; for Glucose after medication 0′: 0 h after ip glucose 2 g/Kg; for Glucose after medication 30′: 30 min after ip glucose 2 g/Kg; for Glucose after medication 60′: 60 min after ip glucose 2 g/Kg; for Glucose after medication 120′: 120 min after ip glucose 2 g/Kg; for Auc (area under glucose tolerance curve): ip glucose 2 g/Kg, 0-2 hours
# Protocol: In these experiments, stilbene derivatives in examples 1-5 are administrated respectively to KM male mice or Wistar male rats pos for 12 days , then test animals were fasted for 8 hours, examined glucose values, and administrated the test compound. One hour later, administered ip of glucose 2 g/Kg (1.11 mol/L glucose solution). Determining the glucose values at 0, ½, 1, 2 hours after glucose injection and calculating the area under this glucose tolerance curve.
# [5] = Solubility in organic solvents (identification); format: physicochemical; conditions: organic solvents as named in the value
# [6] = in vivo; format: in vivo; conditions: mouse, in vivo, pos
# [7] = normal rats N=6, 75 mg/Kg pos 12 days
# [8] = normal rats N=6, 150 mg/Kg pos 12 days
compound,measurement,setting,value
"3,3′,4′,5-quadrahydroxystilbene-4′-O-β-D-glucopyranoside [Compound E1]",Postdosing glucose level,[1]; 250 mg/kg pos for 12 days,21.10 ± 5.73 mmol/L
same,Postdosing glucose level,[1]; 500 mg/kg pos for 12 days,16.39 ± 5.32 mmol/L
same,Postdosing glucose level,[1]; 1000 mg/kg pos for 12 days,16.54 ± 5.48 mmol/L
same,Predosing glucose level,[1]; group 250 mg/kg,22.49 ± 4.63 mmol/L
same,Predosing glucose level,[1]; group 500 mg/kg,22.76 ± 3.17 mmol/L
same,Predosing glucose level,[1]; group 1000 mg/kg,22.65 ± 3.55 mmol/L
same,IR (%) inhibition rate of HBeAg,"[2]; 10 μg/ml, Day 2",57.75%
same,OD (HBeAg ELISA),"[2]; 10 μg/ml, Day 2",0.244
same,IR (%) inhibition rate of HBeAg,"[2]; 10 μg/ml, Day 4",32.68%
same,OD (HBeAg ELISA),"[2]; 10 μg/ml, Day 4",0.208
same,IR (%) inhibition rate of HBeAg,"[2]; 10 μg/ml, Day 6",51.57%
same,OD (HBeAg ELISA),"[2]; 10 μg/ml, Day 6",0.228
same,IR (%) inhibition rate of HBeAg,"[2]; 20 μg/ml, Day 2",63.83%
same,OD (HBeAg ELISA),"[2]; 20 μg/ml, Day 2",0.224
same,IR (%) inhibition rate of HBeAg,"[2]; 20 μg/ml, Day 4",−62.75%
same,OD (HBeAg ELISA),"[2]; 20 μg/ml, Day 4",0.354
same,IR (%) inhibition rate of HBeAg,"[2]; 20 μg/ml, Day 6",48.82%
same,OD (HBeAg ELISA),"[2]; 20 μg/ml, Day 6",0.235
"COc1cc(C=Cc2cc(O)cc(O[C@@H]3O[C@H](CO)[C@@H](O)[C@H](O)[C@H]3O)c2)ccc1O [Compound E2, 3,4′,5-trihydroxy-3′-methyloxy stilbene-3-O-β-D glucoside]",Postdosing glucose level,[1]; 250 mg/kg pos for 12 days,22.61 ± 6.07 mmol/L
same,Postdosing glucose level,[1]; 500 mg/kg pos for 12 days,28.96 ± 8.21 mmol/L
same,Postdosing glucose level,[1]; 1000 mg/kg pos for 12 days,24.64 ± 2.49 mmol/L
same,Predosing glucose level,[1]; group 250 mg/kg,21.43 ± 5.04 mmol/L
same,Predosing glucose level,[1]; group 500 mg/kg,22.98 ± 5.94 mmol/L
same,Predosing glucose level,[1]; group 1000 mg/kg,21.38 ± 5.75 mmol/L
same,MTD,"[3]; mice ♀, pos",>16872 mg/kg
same,MTD,"[3]; mice ♂, pos",>18301 mg/kg
same,Toxicity (in words),"[3]; mice, pos, summary of Table 3",very low
same,IR (%) inhibition rate of HBeAg,"[2]; 10 μg/ml, Day 2",71.43%
same,OD (HBeAg ELISA),"[2]; 10 μg/ml, Day 2",0.199
same,IR (%) inhibition rate of HBeAg,"[2]; 10 μg/ml, Day 4",45.75%
same,OD (HBeAg ELISA),"[2]; 10 μg/ml, Day 4",0.188
same,IR (%) inhibition rate of HBeAg,"[2]; 10 μg/ml, Day 6",56.69%
same,OD (HBeAg ELISA),"[2]; 10 μg/ml, Day 6",0.251
same,IR (%) inhibition rate of HBeAg,"[2]; 20 μg/ml, Day 2",40.43%
same,OD (HBeAg ELISA),"[2]; 20 μg/ml, Day 2",0.301
same,IR (%) inhibition rate of HBeAg,"[2]; 20 μg/ml, Day 4",9.15%
same,OD (HBeAg ELISA),"[2]; 20 μg/ml, Day 4",0.244
same,IR (%) inhibition rate of HBeAg,"[2]; 20 μg/ml, Day 6",4.72%
same,OD (HBeAg ELISA),"[2]; 20 μg/ml, Day 6",0.347
"COc1ccc(C=Cc2cc(O)cc(O[C@@H]3O[C@H](CO)[C@@H](O)[C@H](O)[C@H]3O)c2)cc1 [Compound E3, 3,5-dihydroxy-4′-methyloxy stilbene-3-O-β-O-D glucoside]",MTD,"[3]; mice ♀, pos",>11200 mg/kg
same,MTD,"[3]; mice ♂, pos",>11000 mg/kg
same,Toxicity (in words),"[3]; mice, pos, summary of Table 3",very low
same,IR (%) inhibition rate of HBeAg,"[2]; 10 μg/ml, Day 2",72.95%
same,OD (HBeAg ELISA),"[2]; 10 μg/ml, Day 2",0.194
same,IR (%) inhibition rate of HBeAg,"[2]; 10 μg/ml, Day 4",39.87%
same,OD (HBeAg ELISA),"[2]; 10 μg/ml, Day 4",0.197
same,IR (%) inhibition rate of HBeAg,"[2]; 10 μg/ml, Day 6",71.65%
same,OD (HBeAg ELISA),"[2]; 10 μg/ml, Day 6",0.177
same,IR (%) inhibition rate of HBeAg,"[2]; 20 μg/ml, Day 2",51.37%
same,OD (HBeAg ELISA),"[2]; 20 μg/ml, Day 2",0.265
same,IR (%) inhibition rate of HBeAg,"[2]; 20 μg/ml, Day 4",1.31%
same,OD (HBeAg ELISA),"[2]; 20 μg/ml, Day 4",0.256
same,IR (%) inhibition rate of HBeAg,"[2]; 20 μg/ml, Day 6",48.43%
same,OD (HBeAg ELISA),"[2]; 20 μg/ml, Day 6",0.236
OC[C@H]1OC(Oc2cc(O)cc(C=Cc3ccc(O)cc3)c2)[C@H](O)[C@@H](O)[C@@H]1O (some centres unmarked) [Compound E5],Postdosing glucose level,[1]; 75 mg/kg pos for 12 days,21.79 ± 9.39 mmol/L
same,Postdosing glucose level,[1]; 150 mg/kg pos for 12 days,21.05 ± 4.63 mmol/L
same,Predosing glucose level,[1]; group 75 mg/kg,17.46 ± 5.86 mmol/L
same,Predosing glucose level,[1]; group 150 mg/kg,17.92 ± 5.35 mmol/L
same,Glucose (fasted),[4]; [7],4.6 ± 0.5 mmol/L
same,Glucose after medication 0′,"[4]; normal rats N=6, 75 mg/Kg",4.9 ± 0.7 mmol/L
same,Glucose after medication 30′,"[4]; normal rats N=6, 75 mg/Kg",12.0 ± 1.5 mmol/L
same,Glucose after medication 60′,"[4]; normal rats N=6, 75 mg/Kg",7.4 ± 0.8 mmol/L
same,Glucose after medication 120′,"[4]; normal rats N=6, 75 mg/Kg",6.7 ± 0.7 mmol/L
same,Auc (area under glucose tolerance curve),"[4]; normal rats N=6, 75 mg/Kg",966.8 ± 71.6
same,Glucose (fasted),[4]; [8],4.7 ± 0.8 mmol/L
same,Glucose after medication 0′,"[4]; normal rats N=6, 150 mg/Kg",4.3 ± 0.9 mmol/L
same,Glucose after medication 30′,"[4]; normal rats N=6, 150 mg/Kg",10.2 ± 1.5 mmol/L
same,Glucose after medication 60′,"[4]; normal rats N=6, 150 mg/Kg",6.3 ± 1.1 mmol/L
same,Glucose after medication 120′,"[4]; normal rats N=6, 150 mg/Kg",5.7 ± 1.1 mmol/L
same,Auc (area under glucose tolerance curve),"[4]; normal rats N=6, 150 mg/Kg",836.3 ± 112.1
same,MTD,"[3]; mouse, in vivo",>10000 mg/kg
same,Toxicity (in words),"[3]; mouse, in vivo",very low
same,Solubility (in words),[5],easily soluble in acetone
Oc1ccc(/C=C/c2cc(O)cc(O)c2)cc1 [Compound E],Postdosing glucose level,[1]; 75 mg/kg pos for 12 days,20.01 ± 7.1 mmol/L
same,Postdosing glucose level,[1]; 150 mg/kg pos for 12 days,18.36 ± 6.25 mmol/L
same,Predosing glucose level,[1]; group 75 mg/kg,17.27 ± 4.60 mmol/L
same,Predosing glucose level,[1]; group 150 mg/kg,17.87 ± 4.86 mmol/L
same,Glucose (fasted),[4]; [7],5.3 ± 0.9 mmol/L
same,Glucose after medication 0′,"[4]; normal rats N=6, 75 mg/Kg",4.9 ± 0.7 mmol/L
same,Glucose after medication 30′,"[4]; normal rats N=6, 75 mg/Kg",12.1 ± 2.3 mmol/L
same,Glucose after medication 60′,"[4]; normal rats N=6, 75 mg/Kg",7.5 ± 0.8 mmol/L
same,Glucose after medication 120′,"[4]; normal rats N=6, 75 mg/Kg",6.2 ± 0.9 mmol/L
same,Auc (area under glucose tolerance curve),"[4]; normal rats N=6, 75 mg/Kg",961.1 ± 115.9
same,Glucose (fasted),[4]; [8],5.8 ± 0.6 mmol/L
same,Glucose after medication 0′,"[4]; normal rats N=6, 150 mg/Kg",4.2 ± 0.4 mmol/L
same,Glucose after medication 30′,"[4]; normal rats N=6, 150 mg/Kg",9.5 ± 2.1 mmol/L
same,Glucose after medication 60′,"[4]; normal rats N=6, 150 mg/Kg",6.1 ± 1.2 mmol/L
same,Glucose after medication 120′,"[4]; normal rats N=6, 150 mg/Kg",4.7 ± 0.7 mmol/L
same,Auc (area under glucose tolerance curve),"[4]; normal rats N=6, 150 mg/Kg",760.2 ± 119.6
same,MTD,"[6]; female, mice ♀",> 6100 mg/kg
same,MTD,"[6]; male, mice ♂",> 6000 mg/kg
same,Toxicity (in words),"[3]; mouse, in vivo",very low
same,Solubility (in words),[5],"easily soluble in methyl alcohol, ethyl alcohol and acetone"
"CN(C)C(=N)N=C(N)N [Metformin, reference compound]",Postdosing glucose level,"[1]; 500 mg/kg pos for 12 days, 500 mg/kg",17.49 ± 5.33 mmol/L and 17.64 ± 1.00 mmol/L and 15.16 ± 8.53 mmol/L
same,Predosing glucose level,[1]; group 500 mg/kg,22.81 ± 4.89 mmol/L and 21.15 ± 3.85 mmol/L and 17.10 ± 4.84 mmol/L
same,Hypoglycemic effect (in words),"[1]; alloxan induced diabetic mice, summary of Table 1",effective
"COc1ccc(Cl)cc1C(=O)NCCc1ccc(S(=O)(=O)NC(=O)NC2CCCCC2)cc1 [Miglucan, reference compound]",Glucose after medication 0′,"[4]; normal rats N=6, 100 mg/Kg",2.7 ± 0.8 mmol/L and 3.4 ± 0.4 mmol/L
same,Glucose after medication 30′,"[4]; normal rats N=6, 100 mg/Kg",11.5 ± 0.6 mmol/L and 8.7 ± 3.5 mmol/L
same,Glucose after medication 60′,"[4]; normal rats N=6, 100 mg/Kg",7.8 ± 6.2 mmol/L and 5.3 ± 2.1 mmol/L
same,Glucose after medication 120′,"[4]; normal rats N=6, 100 mg/Kg",4.1 ± 1.7 mmol/L and 3.8 ± 1.4 mmol/L
same,Auc (area under glucose tolerance curve),"[4]; normal rats N=6, 100 mg/Kg",883.1 ± 43.5 and 663.8 ± 220.2
